# Data from US7033773B1, “Screening assays for G protein coupled receptor agonists and antagonists” (The General Hospital Corporation, priority 1997, dated 2006).
# Where two headings read alike, the source gives them in different places. Where a SMILES comes first, the peptide text is derived from it. [ ]: non-standard residue; d: D form. Nle = CCCC[C@H](N)C(=O)O
# Columns and labels:
# rat PTHR = target: T1, rat PTHR (Rattus norvegicus, UniProt P25961); assay: Competitive radioligand (Scatchard) binding to rat PTHRs expressed in LLC-PK1 cells; conditions: Scatchard analysis, read-out: Apparent Kd
# T1 construct: expressed in transfected cells; host or cells: LLC-PK1 porcine renal epithelial cells (EW5; also EW29, AR-C38, AR-B44)
# T1 sequence (P25961 27-591): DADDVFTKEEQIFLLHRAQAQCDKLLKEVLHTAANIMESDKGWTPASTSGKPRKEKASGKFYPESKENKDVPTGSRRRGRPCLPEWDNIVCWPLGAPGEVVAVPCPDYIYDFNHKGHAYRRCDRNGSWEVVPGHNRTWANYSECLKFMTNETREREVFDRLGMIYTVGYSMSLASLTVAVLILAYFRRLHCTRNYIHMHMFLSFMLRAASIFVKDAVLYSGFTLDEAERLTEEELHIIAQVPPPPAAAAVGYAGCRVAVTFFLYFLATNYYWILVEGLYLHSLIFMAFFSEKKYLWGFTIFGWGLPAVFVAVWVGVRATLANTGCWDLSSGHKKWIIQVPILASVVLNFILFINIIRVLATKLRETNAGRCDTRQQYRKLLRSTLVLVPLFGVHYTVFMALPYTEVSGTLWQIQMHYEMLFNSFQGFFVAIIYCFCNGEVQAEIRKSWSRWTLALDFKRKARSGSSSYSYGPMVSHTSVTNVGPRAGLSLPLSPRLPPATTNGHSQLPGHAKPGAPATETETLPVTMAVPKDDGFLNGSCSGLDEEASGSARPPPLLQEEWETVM
# Protocol: (§1) In brief, the cells were seeded into 24-well plates at a density of 2.5×10^5 cells/well and cultured for a further 2 days before study. Cell layers were rinsed with ice-cold Buffer A [50 mM Tris-HCl (pH 7.7), 100 mM NaCl, 2 mM CaCl2, 5 mM KCl, 0.5% FBS, and 5% heat-inactivated horse serum] and then incubated with ^125I-labeled [Nle^8,18, Tyr^34]bovine (b) PTH(1-34) (1×10^5 cpm/well), with or without unlabeled peptide, in 0.5 ml of Buffer A for 6 h in the cold room (2-8° C.). […] All reagents, unless otherwise specified, were obtained from Sigma (St. Louis, Mo.), and all isotopes were purchased from Dupont-New England Nuclear (Boston, Mass.).
# human PTH/PTHrP receptor [1] = target: T2, human PTH/PTHrP receptor (Homo sapiens, UniProt Q03431); assay: Competitive radioligand (Scatchard) binding to human PTH/PTHrP receptors stably expressed in LLC-PK1 cells; parameters: transfected with a full-length human PTH/PTHrP receptor cDNA; expressed in transfected cells; conditions: Scatchard analysis, read-out: Apparent Kd
# T2 sequence (Q03431 27-593): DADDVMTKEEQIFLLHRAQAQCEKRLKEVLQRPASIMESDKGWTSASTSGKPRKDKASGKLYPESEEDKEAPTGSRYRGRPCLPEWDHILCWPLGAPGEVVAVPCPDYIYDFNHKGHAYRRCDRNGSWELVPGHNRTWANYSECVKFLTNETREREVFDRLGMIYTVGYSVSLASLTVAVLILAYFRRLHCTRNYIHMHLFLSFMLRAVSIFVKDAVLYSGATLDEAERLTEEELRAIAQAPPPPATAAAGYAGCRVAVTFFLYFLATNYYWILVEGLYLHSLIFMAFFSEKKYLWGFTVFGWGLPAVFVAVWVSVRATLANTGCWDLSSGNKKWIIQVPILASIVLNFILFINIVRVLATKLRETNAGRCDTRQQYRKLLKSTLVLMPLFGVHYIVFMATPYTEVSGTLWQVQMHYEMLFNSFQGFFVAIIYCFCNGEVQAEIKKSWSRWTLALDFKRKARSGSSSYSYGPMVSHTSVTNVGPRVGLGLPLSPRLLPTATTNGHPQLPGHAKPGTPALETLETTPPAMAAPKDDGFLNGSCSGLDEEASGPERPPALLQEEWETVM
# Protocol: FIGS. 1A-1B and 1C-1D. Competitive radioligand binding to human PTH/PTHrp receptors stably expressed in LLC-PK1 cells. LLC-PK1 cells stably expressing (FIGS. 1A-1B) 950,000 receptors/cell (HKRK B7) or (FIGS. 1C-1D) 280,000 receptors/cell (HKRK B28) were incubated with ^125I-[Nle^8,18,Tyr^34]bPTH(1-34) in binding buffer for 6 hr at 15° C. in the presence or absence of increasing concentrations of nonradioactive ligand. Scatchard plots are shown in the insets. Each point represents the mean± of triplicate determinations. Total radioligand bound ranged from 15,000-30,000 cpm/well, and nonspecific binding was 2-5% of total binding.
# as §1
# Radioligand competition assays and Scatchard analyses for two representative cell lines, HKRK B7 and HKRK B28, which express 950,000 and 280,000 hPTHRs per cell, respectively, are shown in FIGS. 1A-1D. […] In each case, the Scatchard analysis was linear, consistent with a single class of high affinity binding sites. The subsequent example described below was conducted with two cell lines, which were chosen as representative of those expressing relatively high (HKRK B7) and low (HKRK B28) densities of hPTHRs, respectively.
# human PTH/PTHrP receptor [2] = assay: Cytosolic free calcium (fura-2) in LLC-PK1 cells expressing human PTHR; conditions: other experiments, hPTHR-expressing LLC-PK1 cells
# Protocol: Cytosolic free calcium was measured in fura 2AM-loaded confluent monolayers of cells.
# Cytosolic free calcium was measured by dual fluorescence in cells loaded with the Ca^2+-sensitive intracellular probe fura-2. Cells were seeded onto glass coverslips at a density of 40,000-600,000/cm^2 and incubated for 2 days as described above. Coverslips were washed twice with PBS before loading in phosphate-free Buffer B containing 4 uM of fura-2/AM (Molecular Probes, Eugene, Oreg.) for 30 min at room temperature (22° C.). After washing twice with fura-free Buffer B, the coverslips were mounted in a cuvette containing 2 ml of phosphate-free Buffer B at 37° C. and the emission at 510 nm in response to alternating excitation at 340 and 380 nm was monitored using a ratiometric PTI Deltascan fluorescence spectrometer with excitation and emission bandwidths of 2 nm. After achieving a stable baseline, agonists were introduced by exchange into 2 ml of fresh buffer to which 10-20 ul of concentrated agonist stock (or vehicle alone) had been added. Peptide stocks were prepared in 0.1% trifluoroacetic acid, ionomycin and phorbol esters were dissolved in dimethyl sulfoxide and all other additives were prepared in water. Maximum and minimum fluorescence signals were obtained by exposure to modified buffers containing 1 uM ionomycin plus 20 mM calcium or 2 mM EGTA in the nominal absence of calcium, respectively, and autofluorescence was estimated from signals obtained in the presence of ionomycin plus 2.5 mM MnCl2.
# human PTH/PTHrP receptor [3] = target: T2, human PTH/PTHrP receptor; assay: Urokinase-type plasminogen activator (u-PA) secretion bioassay in LLC-PK1 cells expressing human PTHR; conditions: AB45 cells (hPTHR + REV AB dominant-negative PKA inhibitor), 16 hr
# Protocol: Cells were seeded into 96-well plates at a density of 6×10^4 cells/well and used the following day. The cells were washed once with 0.2 ml and then refed with 0.1 ml of prewarmed DMEM containing 0.05% BSA. After adding each stimulator, plates were returned to the incubator at 37° C. for 16 h. Conditioned medium (5 ul) then was transferred from each well to a clean microplate. […] Activity was expressed in Ploug units/well, using purified human urokinase (Calbiochem) as a standard.
# Cells were incubated with the indicated peptides (1000 nM) for 16 hr before measurement of secreted u-PA present in the medium, which was expressed as a percentage of the activity measured in vehicle-treated controls. Values shown are means±SEM of triplicate determinations.
"Kd (rat PTHR; EW5 cells, 320 x10^3 rat receptors/cell) [nM]","Kd (rat PTHR; EW29 cells, 190 x10^3 rat receptors/cell) [nM]","Kd (human PTH/PTHrP receptor [1]; HKRH C58 cells, 1030 x10^3 receptors/cell) [nM]","Kd (human PTH/PTHrP receptor [1]; HKRK B5 cells, 840 x10^3 receptors/cell) [nM]","Kd (human PTH/PTHrP receptor [1]; HKRK B7 cells, 950 x10^3 receptors/cell) [nM]","Kd (human PTH/PTHrP receptor [1]; HKRK B28 cells, 280 x10^3 receptors/cell) [nM]","Kd (human PTH/PTHrP receptor [1]; HKRK B54 cells, 1020 x10^3 receptors/cell) [nM]","Kd (human PTH/PTHrP receptor [1]; HKRK B57 cells, 900 x10^3 receptors/cell) [nM]","Kd (human PTH/PTHrP receptor [1]; HKRK B64 cells, 90 x10^3 receptors/cell) [nM]","Kd (human PTH/PTHrP receptor [1]; HKRK C27 cells, 340 x10^3 receptors/cell) [nM]","Kd (human PTH/PTHrP receptor [1]; HKRK C30 cells, 600 x10^3 receptors/cell) [nM]","Kd (human PTH/PTHrP receptor [1]; HKRK C53 cells, 120 x10^3 receptors/cell) [nM]","Kd (human PTH/PTHrP receptor [1]; HKRK C101 cells, 330 x10^3 receptors/cell) [nM]",SMILES,calcium responses to PKA/PKC activators (human PTH/PTHrP receptor [2]),u-PA response in cAMP-resistant cells (in words) (human PTH/PTHrP receptor [3])
2.3,2.5,3.6,3.9,4.5,1.8,6.4,5.6,1.3,2.2,2.8,1.2,1.6,"CCCC[C@H](NC(=O)[C@H](CO)NC(=O)[C@H](CO)NC(=O)[C@H](CC(C)C)NC(=O)[C@H](Cc1c[nH]cn1)NC(=O)[C@H](CCCCN)NC(=O)CNC(=O)[C@H](CC(C)C)NC(=O)[C@H](CC(N)=O)NC(=O)[C@H](Cc1c[nH]cn1)NC(=O)[C@H](CCCC)NC(=O)[C@H](Cc1ccccc1)NC(=O)[C@H](CCC(N)=O)NC(=O)[C@@H](NC(=O)[C@H](CCC(=O)O)NC(=O)[C@H](CO)NC(=O)[C@@H](NC(=O)[C@H](C)N)C(C)C)[C@@H](C)CC)C(=O)N[C@@H](CCC(=O)O)C(=O)N[C@@H](CCCNC(=N)N)C(=O)N[C@H](C(=O)N[C@@H](CCC(=O)O)C(=O)N[C@@H](Cc1c[nH]c2ccccc12)C(=O)N[C@@H](CC(C)C)C(=O)N[C@@H](CCCNC(=N)N)C(=O)N[C@@H](CCCCN)C(=O)N[C@@H](CCCCN)C(=O)N[C@@H](CC(C)C)C(=O)N[C@@H](CCC(N)=O)C(=O)N[C@@H](CC(=O)O)C(=O)N[C@H](C(=O)N[C@@H](Cc1c[nH]cn1)C(=O)N[C@@H](CC(N)=O)C(=O)N[C@@H](Cc1ccc(O)cc1)C(N)=O)C(C)C)C(C)C [[Nle^8,18, Tyr^34]bPTH(1-34), [Nle^8,18, Tyr^34]bovine (b) PTH(1-34)] (H-AVSEIQF[Nle]HNLGKHLSS[Nle]ERVEWLRKKLQDVHNY-NH2; N-terminus assumed)",–,–
–,–,–,–,–,–,–,–,–,–,–,–,–,CCCCCCCCCCCCCC(=O)O[C@@H]1[C@@H](C)[C@@]2(O)[C@@H](C=C(CO)C[C@]3(O)C(=O)C(C)=C[C@@H]23)[C@H]2C(C)(C)[C@]12OC(C)=O [TPA],failed to elicit calcium responses,well-maintained
